{
  "source": "patent US10988523B2",
  "about": "“Modified lipidated Relaxin B chain peptides and their therapeutic use” (Sanofi, priority 2018, dated 2021)",
  "molecular_target": "T1, RXFP1 (Homo sapiens, UniProt Q9HBX9)",
  "T1 construct": "OVCAR5 cells expressing endogenous RXFP1; endogenous in cells; host or cells: OVCAR5 cells",
  "T1 sequence (Q9HBX9 1-757)": "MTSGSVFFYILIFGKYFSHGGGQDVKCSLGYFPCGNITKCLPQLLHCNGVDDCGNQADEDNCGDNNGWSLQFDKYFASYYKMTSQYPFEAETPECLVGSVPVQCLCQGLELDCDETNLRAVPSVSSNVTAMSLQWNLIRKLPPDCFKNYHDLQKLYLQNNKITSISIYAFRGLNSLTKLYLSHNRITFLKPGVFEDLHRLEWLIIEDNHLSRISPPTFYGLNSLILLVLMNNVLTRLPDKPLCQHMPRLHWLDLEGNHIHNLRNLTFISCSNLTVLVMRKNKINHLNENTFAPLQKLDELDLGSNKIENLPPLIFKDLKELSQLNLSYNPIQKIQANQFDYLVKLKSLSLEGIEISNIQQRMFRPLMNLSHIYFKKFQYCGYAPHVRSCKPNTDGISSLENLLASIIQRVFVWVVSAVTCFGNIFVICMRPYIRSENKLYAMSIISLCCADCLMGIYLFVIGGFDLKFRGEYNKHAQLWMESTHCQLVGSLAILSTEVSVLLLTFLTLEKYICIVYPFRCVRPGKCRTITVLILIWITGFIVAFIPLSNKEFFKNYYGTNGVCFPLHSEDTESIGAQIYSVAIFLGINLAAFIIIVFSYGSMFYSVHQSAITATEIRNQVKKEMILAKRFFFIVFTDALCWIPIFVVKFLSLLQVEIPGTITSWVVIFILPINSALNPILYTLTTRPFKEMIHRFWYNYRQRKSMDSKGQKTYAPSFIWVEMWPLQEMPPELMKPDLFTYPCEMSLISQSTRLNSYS",
  "assay": "OVCAR5 cAMP assay (HTRF), RXFP1 agonist activity",
  "format": "cell-based",
  "settings": "OVCAR-5; maximal cAMP relative to H2-relaxin maximum (100%); read-out: EMax, OVCAR 5 cells (cAMP)",
  "in_short": "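OVCAR5 cells (endogenous RXFP1) pretreated 40 min at 37° C with 1 mM IBMX, then exposed to peptides in serum-free medium for 30 min at 37° C. Lysate cAMP read by HTRF; EC50 from variable-slope sigmoidal fit; Emax as % of H2-relaxin maximal cAMP in same run.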",
  "note": "*1 amine or outer side, *2 acyl side, *3 side chain or, on linkers, in order; H or OH if unused. Where a SMILES comes first, the peptide text is derived from it. Side-chain parts run from the residue outwards. [ ]: non-standard residue; d: D form. The star is where a group is joined. γGlu = O=C(O)[C@H](CCC(=O)[*:2])N[*:1]; Stearoyl = CCCCCCCCCCCCCCCCCC(=O)*; Palmitoyl = CCCCCCCCCCCCCCCC(=O)*; Nle = CCCC[C@H](N)C(=O)O; AEEA = NCCOCCOCC(=O)O; Aib = CC(C)(N)C(=O)O",
  "data": [
    {"molecule": "CCCCCCCCCCCCCCCCCC(=O)N[C@@H](CCC(=O)N[C@@H](CCC(=O)N[C@@H](CCC(=O)NCCOCCOCC(=O)NCCOCCOCC(=O)NCCOCCOCC(=O)NCCCC[C@H](NC(=O)[C@H](CCCCNC(C)=O)NC(=O)[C@H](CCCCN)NC(=O)[C@H](CCCNC(=N)N)NC(=O)C(C)(C)NC(=O)[C@H](CO)NC(=O)[C@H](Cc1c[nH]c2ccccc12)NC(=O)[C@@H](NC(=O)[C@H](CO)NC(=O)[C@H](CCC(N)=O)NC(=O)CNC(=O)[C@H](CCC(=O)O)NC(=O)C(C)(C)NC(=O)C(C)(C)NC(=O)[C@@H](NC(=O)[C@H](CCCCNC(C)=O)NC(=O)[C@H](C)NC(=O)[C@H](CCCNC(=N)N)NC(=O)[C@@H](NC(=O)[C@H](CCCCN)NC(=O)[C@H](CCC(=O)O)NC(=O)[C@H](CCCNC(=N)N)NC(=O)CNC(=O)[C@H](CCC(=O)O)NC(=O)[C@H](CC(C)C)NC(C)=O)C(C)C)[C@@H](C)CC)[C@@H](C)O)C(N)=O)C(=O)O)C(=O)O)C(=O)O", "note": "[compound 113] (Ac-LEGREKVRAK(Ac)I[Aib][Aib]EGQSTWS[Aib]RKK(Ac)K([AEEA-AEEA-AEEA-γGlu-γGlu-γGlu-Stearoyl])-NH2)", "values": [
      {"measurement": "Emax", "value": 89, "unit": "%"}
    ]},
    {"molecule": "CCCCCCCCCCCCCCCC(=O)N[C@@H](CCC(=O)N[C@@H](CCC(=O)N[C@@H](CCC(=O)NCCOCCOCC(=O)NCCOCCOCC(=O)NCCCC[C@H](NC(=O)COCCOCCNC(=O)[C@H](CCCCN)NC(=O)[C@H](CCCNC(=N)N)NC(=O)C(C)(C)NC(=O)[C@H](CO)NC(=O)[C@H](Cc1c[nH]c2ccccc12)NC(=O)[C@@H](NC(=O)[C@H](CO)NC(=O)[C@H](CCCC)NC(=O)CNC(=O)[C@H](CCC(=O)O)NC(=O)C(C)(C)NC(=O)C(C)(C)NC(=O)[C@@H](NC(=O)[C@H](CCC(N)=O)NC(=O)[C@H](C)NC(=O)[C@H](CCCNC(=N)N)NC(=O)[C@@H](NC(=O)[C@H](CCCCN)NC(=O)[C@H](CCC(=O)O)NC(=O)[C@H](CCCNC(=N)N)NC(=O)CNC(=O)[C@H](CCC(=O)O)NC(=O)[C@H](CC(C)C)NC(C)=O)C(C)C)[C@@H](C)CC)[C@@H](C)O)C(N)=O)C(=O)O)C(=O)O)C(=O)O", "note": "[compound 13] (Ac-LEGREKVRAQI[Aib][Aib]EG[Nle]STWS[Aib]RK[AEEA]K([AEEA-AEEA-γGlu-γGlu-γGlu-Palmitoyl])-NH2)", "values": [
      {"measurement": "Emax", "value": 81, "unit": "%"}
    ]},
    {"molecule": "CCCCCCCCCCCCCCCC(=O)N[C@@H](CCC(=O)N[C@@H](CCC(=O)N[C@@H](CCC(=O)NCCCC[C@H](NC(=O)[C@H](CCCCN)NC(=O)[C@H](CCCCN)NC(=O)[C@H](CCCNC(=N)N)NC(=O)C(C)(C)NC(=O)[C@H](CO)NC(=O)[C@H](Cc1c[nH]c2ccccc12)NC(=O)[C@@H](NC(=O)[C@H](CO)NC(=O)[C@H](CCCC)NC(=O)CNC(=O)[C@H](CCC(=O)O)NC(=O)C(C)(C)NC(=O)C(C)(C)NC(=O)[C@@H](NC(=O)[C@H](C)NC(=O)[C@H](C)NC(=O)[C@H](CCCNC(=N)N)NC(=O)[C@@H](NC(=O)[C@H](CCCCN)NC(=O)[C@H](CCC(=O)O)NC(=O)[C@H](CCCNC(=N)N)NC(=O)CNC(=O)[C@H](CCC(=O)O)NC(=O)[C@H](CC(C)C)NC(=O)[C@H](CCC(=O)O)NC(C)=O)C(C)C)[C@@H](C)CC)[C@@H](C)O)C(N)=O)C(=O)O)C(=O)O)C(=O)O", "note": "[compound 6] (Ac-ELEGREKVRAAI[Aib][Aib]EG[Nle]STWS[Aib]RKKK([γGlu-γGlu-γGlu-Palmitoyl])-NH2)", "values": [
      {"measurement": "Emax", "value": 100, "unit": "%"}
    ]},
    {"molecule": "CCCCCCCCCCCCCCCCCC(=O)NCCOCCOCC(=O)NCCOCCOCC(=O)NCCCC[C@H](NC(=O)[C@H](CCCCNC(C)=O)NC(=O)[C@H](CCCCN)NC(=O)[C@H](CCCNC(=N)N)NC(=O)C(C)(C)NC(=O)[C@H](CO)NC(=O)[C@H](Cc1c[nH]c2ccccc12)NC(=O)[C@@H](NC(=O)[C@H](CO)NC(=O)[C@H](CCCC)NC(=O)CNC(=O)[C@H](CCC(=O)O)NC(=O)C(C)(C)NC(=O)C(C)(C)NC(=O)[C@@H](NC(=O)[C@H](CCC(N)=O)NC(=O)[C@H](C)NC(=O)[C@H](CCCNC(=N)N)NC(=O)[C@@H](NC(=O)[C@H](CCCCN)NC(=O)[C@H](CCC(=O)O)NC(=O)[C@H](CCCNC(=N)N)NC(=O)CNC(=O)[C@H](CCC(=O)O)NC(=O)[C@H](CC(C)C)NC(C)=O)C(C)C)[C@@H](C)CC)[C@@H](C)O)C(N)=O", "note": "[compound 51] (Ac-LEGREKVRAQI[Aib][Aib]EG[Nle]STWS[Aib]RKK(Ac)K([AEEA-AEEA-Stearoyl])-NH2)", "values": [
      {"measurement": "Emax", "value": 100, "unit": "%"}
    ]}
  ]
}
